{"source": "patent US20100331409A1", "about": "“Use of Methyl Cinnamate in the Inhibition of Candida Albicans Biofilms” (Barak Biotechnology Co., Ltd., priority 2009, published 2010)", "type_in_all_cases": "cell-based", "key": {"[1]": {"test_system": "biofilm of Candida albicans", "assay": "Inhibition of biofilm of Candida albicans on polystyrene (XTT and crystal violet)", "details": "concentration ranging from 0.015% to 0.125%; added 4 hours after adhesion, cultured at 37° C. to 48 hours; XTT and CV", "protocol": "A single colony of Candida albicans was selected from YPD plate (1% (w/v) yeast extract, 2% (w/v) peptone, 2% (w/v) dextrose and 1.5% (w/v) agar), seeded in YPD liquid medium (1% (w/v) yeast extract, 2% (w/v) peptone and 2% (w/v) dextrose) and then cultured at 30° C. and 100 rpm for 16 hours. The YPD medium was washed out and the amounts of the Candida albicans cells were counted using Hematocyte Counter. The cells were diluted with RPMI 1640 medium (Gibco, Invitroge, Calif., U.S.A.) to 5×10^5 cells/ml. 200 μL of 5×10^5 cells/ml medium were added to 96-well plate and placed at 37° C. for 1 hour so that the cells could adhere to the bottom of the plate. The non-adhered cells were washed out with phosphate buffer. The material of the 96-well plate was polystyrene, which is a common material for medical device such as syringe. Subsequently, RPMI 1640 medium was added to the plate and cultured at 37° C. […] The numbers of cells in the biofilm were determined by a colorimetric assay using XTT [2,3-Bis(2-methoxy-4-nitro-5-sulfo-phenyl)-2H-tetrazolium-5-carboxanilide] (Sigma, Mo., U.S.A.) and their biomass was determined by crystal violet to find out the mature development of biofilm (Ramage G et al., Inhibition of Candida albicans Biofilm Formation by Farnesol, A Quorum-Sensing Molecule. Appl Environ Microbiol 2002, 68: 5459-5463). […]"}, "Candida albicans [2]": {"test_system": "Candida albicans", "assay": "MFC assay against Candida albicans", "details": "1×10^5 CFU/ml, 96-well plates, 37° C. for 16 hours", "protocol": "(§1) A single colony of Candida albicans was selected from YPD plate, seeded in YPD liquid medium and then cultured at 30° C. and 100 rpm for 16 hours. The medium was diluted to 1×10^5 CFU/ml. The diluted medium was added to 96-well plates containing different concentrations of methyl cinnamate and essential oil of Zanthoxylum armatum (0.00625% to 1% for methyl cinnamate and 0.025% to 0.5% for essential oil) and cultured at 37° C. for 16 hours."}, "Candida albicans [3]": {"test_system": "Candida albicans", "assay": "MIC assay against Candida albicans", "details": "1×10^5 CFU/ml, 96-well plates, 37° C. for 16 hours", "protocol": "as §1"}}, "data": [{"compound": "COC(=O)/C=C/c1ccccc1", "note": "[methyl cinnamate]", "values": [{"measurement": "biofilm inhibited", "setting": "[1]", "value": "10 to 60", "unit": "%"}, {"measurement": "MFC", "setting": "Candida albicans [2]", "value": 0.8, "unit": "%"}, {"measurement": "MIC", "setting": "Candida albicans [3]", "value": 0.1, "unit": "%"}]}]}
